One assay relates to GTL16 cells. In words: GTL16 cell viability assay (CellTiter Glo). It is filed as cell-based. The following applies: Homo sapiens, GTL 16, GTL16 gastric cancer cells, 24 hours, triplicates, read-out: GTL-16 Proliferation IC50. On the procedure: GTL16 cell line is derived from a gastric cancer patient. GTL16 expresses high level of c-Met receptor tyrosine kinase due to the gene amplification.
GTL16 cells were seeded in DMEM medium with 10% FBS and 1% Pene. & Strep. at 5000 cells/well/90 μL in 96 well plate and incubated overnight for attachment at 37° C. in 5% CO2 incubator. 10-fold serials dilutions of compounds were added to the cell as 10 μL/well. The final assay volume was 100 μl/well. The assay plates were incubated at 37° C. in 5% CO2 incubator for 24 hours. […] Briefly, the plates were cooled at room temperature for 10 mins and 100 μl of CellTiter Glo reagent was added into each well. Plates were shaken for 10 mins. The chemiluminescent light unit was read in Envision from Perkin Elmer. All the tests were run at triplicates. The IC50 was calculated using Spotfire software.
A general note: Cellular ATP, detected with luciferase, serves as a proxy for viable cell number.

Another assay deals with T1, human platelet PDE3 (Homo sapiens, UniProt Q14432).
T1 construct: Human platelet PDE3 (partially purified from human platelets); from tissue; host or cells: human platelets
T1 sequence (Q14432 whole entry): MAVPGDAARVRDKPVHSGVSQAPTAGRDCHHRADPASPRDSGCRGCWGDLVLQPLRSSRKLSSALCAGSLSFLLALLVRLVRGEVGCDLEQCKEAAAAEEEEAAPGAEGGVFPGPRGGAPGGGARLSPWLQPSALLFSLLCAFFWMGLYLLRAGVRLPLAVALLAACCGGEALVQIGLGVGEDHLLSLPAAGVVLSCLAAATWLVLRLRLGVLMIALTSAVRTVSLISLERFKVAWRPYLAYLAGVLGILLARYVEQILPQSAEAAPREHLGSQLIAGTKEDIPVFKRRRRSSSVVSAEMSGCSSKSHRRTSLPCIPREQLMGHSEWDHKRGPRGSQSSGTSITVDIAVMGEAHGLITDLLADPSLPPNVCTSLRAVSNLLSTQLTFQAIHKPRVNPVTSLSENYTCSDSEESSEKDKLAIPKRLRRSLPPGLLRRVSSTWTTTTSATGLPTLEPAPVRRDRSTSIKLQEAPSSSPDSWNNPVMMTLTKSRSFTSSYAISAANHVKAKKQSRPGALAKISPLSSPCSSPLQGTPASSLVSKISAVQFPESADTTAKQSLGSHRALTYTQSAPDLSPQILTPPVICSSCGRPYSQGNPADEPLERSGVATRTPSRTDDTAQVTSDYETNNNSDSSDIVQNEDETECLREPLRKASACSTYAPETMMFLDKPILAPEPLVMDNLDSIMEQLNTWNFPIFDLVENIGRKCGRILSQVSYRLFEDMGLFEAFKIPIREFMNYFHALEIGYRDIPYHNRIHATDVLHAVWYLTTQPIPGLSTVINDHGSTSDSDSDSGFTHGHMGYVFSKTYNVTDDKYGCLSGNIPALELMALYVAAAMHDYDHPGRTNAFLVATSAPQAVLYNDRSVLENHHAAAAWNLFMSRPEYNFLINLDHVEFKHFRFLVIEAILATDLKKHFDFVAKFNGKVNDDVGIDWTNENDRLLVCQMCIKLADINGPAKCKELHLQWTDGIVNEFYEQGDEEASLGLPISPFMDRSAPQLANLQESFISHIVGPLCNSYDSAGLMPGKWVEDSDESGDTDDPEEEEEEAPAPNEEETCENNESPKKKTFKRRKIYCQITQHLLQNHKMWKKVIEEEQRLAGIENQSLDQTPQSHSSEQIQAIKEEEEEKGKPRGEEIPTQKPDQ
In words: hPDE3 assay ([3H]cAMP scintillation proximity assay). It is filed as biochemical. The following applies: human platelet PDE3, [3H]cAMP SPA, 30 min at room temperature.

For assay [1], the target named is c-MET receptor tyrosine kinase, GST-c-MET(969-1390) (Homo sapiens, UniProt P08581). In words: EPK c-MET profiling assay (LanthaScreen TR-FRET kinase assay). It is filed as biochemical. The following applies: 2 μM ATP, 0.3 nM enzyme, 60 minutes at room temperature; end point measurement, repeats can be about two times higher or lower; read-out: c-Met Biochem IC50. On the procedure:
The exemplified compounds of the present invention were assayed in an antibody based kinase phosphorylation assay as follows.
EPK c-MET Profiling Assay:
The EPK kinase assay for c-MET receptor tyrosine kinase was developed, using the purified recombinant GST-fusion protein, containing the cytoplasmic domain of the enzyme. GST-c-MET(969-1390) was purified by affinity chromatography.
The kinase assay is based on the LanthaScreen™ technology. LanthaScreen™ is the detection of Time-Resolved Fluorescence Resonance Energy Transfer (TR-FRET) using lanthanide chelates to measure interactions between various binding partners. In a TR-FRET kinase assay, a long-lifetime lanthanide donor species is conjugated to an antibody that specifically binds to a phosphorylated product of a kinase reaction that is labeled with a suitable acceptor fluorophore. This antibody-mediated interaction brings the lanthanide donor and the acceptor into proximity such that resonance energy transfer can take place, resulting in a detectable increase in the FRET signal.
The kinase reactions were performed in 384 well microtiter plates in a total reaction volume of 10.05 μL. The assay plates were prepared with 0.05 μL per well of test compound in the appropriate test concentration, as described under “preparation of compound dilutions”. The reactions were started by combining 5 μL of ATP solution with 5 μL of enzyme-substrate mix (consisting of kinase and substrate). The final concentrations in the kinase reactions were 25 mM Tris/HCl, 1 mM DTT, 0.025% Tween20, 10 μM sodium orthovanadate, 0.25% BSA, 0.5% DMSO, 10 mM MgCl2, 3 mM MnCl2, 2 μM ATP, 50 nM Fluorescein-PolyEAY, and 0.3 nM enzyme. The reactions were incubated for 60 minutes at room temperature and stopped by adding 5 μL of stop buffer (50 mM EDTA, 0.04% NP40, 20 mM Tris/HCl). Subsequently 5 μL of detection mix (50 mM Tris/HCl, 2 mM DTT, 0.05% Tween20, 20 μM sodium orthovanadate, 1% BSA, 1 nM Tb-PY20 antibody) were added to the stopped reactions. After 45 minutes incubation in dark at room temperature, the plates were measured in a Perkinelmer Envision fluorescence reader. The effect of compound on the enzymatic activity was in all assays obtained from the linear progress curves and normally determined from one reading (end point measurement).
These endpoint results should therefore only be seen as an indicator for the activity range, since repeated measurements can result in about two times higher or lower values.

Bounds are passed on as bounds.

c-MET receptor tyrosine kinase, GST-c-MET(969-1390), sequence (P08581 969-1390): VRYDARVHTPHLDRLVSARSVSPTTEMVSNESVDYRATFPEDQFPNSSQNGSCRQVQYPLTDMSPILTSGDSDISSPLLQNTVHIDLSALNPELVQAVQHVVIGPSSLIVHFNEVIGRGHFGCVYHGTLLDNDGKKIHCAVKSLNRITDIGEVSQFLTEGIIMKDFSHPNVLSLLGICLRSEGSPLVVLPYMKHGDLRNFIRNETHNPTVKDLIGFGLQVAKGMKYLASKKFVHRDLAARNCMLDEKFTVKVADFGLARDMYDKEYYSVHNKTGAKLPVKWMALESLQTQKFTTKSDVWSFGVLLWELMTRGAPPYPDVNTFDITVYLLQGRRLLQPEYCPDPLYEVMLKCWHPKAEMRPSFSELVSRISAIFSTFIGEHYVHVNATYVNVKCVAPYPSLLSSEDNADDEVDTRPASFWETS

With `C/C(=N\O)c1ccc2nnc(Cc3c(F)cc4ncc(N5CCOCC5)cc4c3F)n2n1` [Example 11, (E)-1-[3-(5,7-Difluoro-3-morpholin-4-yl-quinolin-6-ylmethyl)-[1,2,4]triazolo[4,3-b]pyridazin-6-yl]-ethanone oxime], the values for the IC50 (in the assay on GTL16 cells; against human platelet PDE3; in assay [1]) were 6 nM, more than 30000 nM and 1 nM, respectively.

`C/C(=N\O)c1ccc2nnc(Cc3ccc4ncc(-c5cnn(C)c5)cc4c3)n2n1` [Example 12, (E)-1-(3-((3-(1-Methyl-1H-pyrazol-4-yl)quinolin-6-yl)methyl)-[1,2,4]triazolo[4,3-b]pyridazin-6-yl)ethanone oxime]: the IC50 is 1 nM with GTL16 cells, 9000 nM against human platelet PDE3 and 0.5 nM in assay [1].

Turning to `C/C(=N\O)c1ccc2nnc(Cc3ccc4ncc(N5CCOCC5)cc4c3)n2n1` [Example 13, (E)-1-(3-((3-Morpholin-4-yl-quinolin-6-yl)methyl)-[1,2,4]triazolo[4,3-b]pyridazin-6-yl)ethanone oxime], the figures for the IC50 (in the assay with GTL16 cells; against human platelet PDE3; in assay [1]) were 10 nM, 14000 nM and 2 nM, respectively.

Take `C/C(=N\O)c1ccc2nnc(Cc3ccc4ncc(N5CCN(C)CC5)cc4c3)n2n1` [Example 14, (E)-1-(3-((3-(4-Methylpiperazin-1-yl)quinolin-6-yl)methyl)-[1,2,4]triazolo[4,3-b]pyridazin-6-yl)ethanone oxime]: the results for the IC50 (in the assay on GTL16 cells; against human platelet PDE3; in assay [1]) were 2 nM, 25000 nM and 3 nM, respectively.

On to `C/C(=N\O)c1ccc2nnc(Cc3ccc4ncc(CN5CCOCC5)cc4c3)n2n1` [Example 15, (E)-1-(3-((3-(Morpholin-4-yl-methyl)quinolin-6-yl)methyl)-[1,2,4]triazolo[4,3-b]pyridazin-6-yl)ethanone oxime], for which the IC50 with GTL16 cells is 13 nM; on human platelet PDE3 it was more than 30000 nM; in assay [1], 7 nM.

With `C/C(=N\O)c1ccc2nnc([C@H](C)c3c(F)cc4ncc(-c5cnn(C)c5)cc4c3F)n2n1` [Example 21-(R), (R,E)-1-(3-(1-(5,7-difluoro-3-(1-methyl-1H-pyrazol-4-yl)quinolin-6-yl)ethyl)-[1,2,4]triazolo[4,3-b]pyridazin-6-yl)ethanone oxime], the IC50 with GTL16 cells stood at 30 nM; against human platelet PDE3 it was 7000 nM; in assay [1], 47 nM.

Take `C/C(=N\O)c1ccc2nnc([C@@H](C)c3c(F)cc4ncc(-c5cnn(C)c5)cc4c3F)n2n1` [Example 21-(S), (S,E)-1-(3-(1-(5,7-difluoro-3-(1-methyl-1H-pyrazol-4-yl)quinolin-6-yl)ethyl)-[1,2,4]triazolo[4,3-b]pyridazin-6-yl)ethanone oxime]: the IC50 in the assay on GTL16 cells amounted to 7 nM; at human platelet PDE3, 4000 nM; in assay [1], 3 nM.

Regarding `C/C(=N\O)c1ccc2nnc(Cc3c(F)cc4ncc(-c5cnn(C)c5)cc4c3F)n2n1` [Example 22, (E)-1-(3-((5,7-Difluoro-3-(1-methyl-1H-pyrazol-4-yl)quinolin-6-yl)methyl)-[1,2,4]triazolo[4,3-b]pyridazin-6-yl)ethanone oxime], the values for the IC50 (in the assay on GTL16 cells; against human platelet PDE3; in assay [1]) were 3 nM, 21000 nM and 1 nM, respectively.

Consider `C/C(=N\OCCO)c1ccc2nnc(Cc3c(F)cc4ncc(C5CCCCC5)cc4c3F)n2n1` [Example 25, (E)-1-(3-((3-Cyclohexyl-5,7-difluoroquinolin-6-yl)methyl)-[1,2,4]triazolo[4,3-b]pyridazin-6-yl)ethanone O-2-hydroxyethyl oxime], for which the values for the IC50 (in the assay on GTL16 cells; on human platelet PDE3; in assay [1]) were 12 nM, 3000 nM and 16 nM, respectively.

For the compound `C/C(=N\O)c1ccc2nnc(Cc3c(F)cc4ncc(C5CCCCC5)cc4c3F)n2n1` [Example 26, (E)-1-(3-((3-Cyclohexyl-5,7-difluoroquinolin-6-yl)methyl)-[1,2,4]triazolo[4,3-b]pyridazin-6-yl)-ethanone oxime], the IC50 in the assay on GTL16 cells was 93 nM; against human platelet PDE3 it was more than 30000 nM; in assay [1], 15 nM.

Turning to `C/C(=N\O)c1ccc2nnc(Sc3ccc4ncc(N5CCN(C)CC5)cc4c3)n2n1` [Example 28, (E)-1-(3-((3-(4-Methylpiperazin-1-yl)quinolin-6-yl)sulfanyl)-[1,2,4]triazolo[4,3-b]pyridazin-6-yl)-ethanone oxime], the IC50 in the assay on GTL16 cells is 2 nM; against human platelet PDE3, more than 30000 nM; in assay [1], 5 nM.

As for `C/C(=N\O)c1ccc2nnc(Sc3ccc4ncc(N5CCC(O)CC5)cc4c3)n2n1` [Example 29, (E)-1-(3-((3-(4-Hydroxypiperidin-1-yl)quinolin-6-yl)sulfanyl)-[1,2,4]triazolo[4,3-b]pyridazin-6-yl)-ethanone oxime], the IC50 in the assay on GTL16 cells is 1 nM; at human platelet PDE3, more than 30000 nM; in assay [1], 0.7 nM.

For `C/C(=N\O)c1ccc2nnc(Sc3ccc4ncc(NC5CCOCC5)cc4c3)n2n1` [Example 30, (E)-1-(3-((3-((Tetrahydro-2H-pyran-4-yl)amino)quinolin-6-yl)sulfanyl)-[1,2,4]triazolo[4,3-b]pyridazin-6-yl)-ethanone oxime], the IC50 stood at 1 nM with GTL16 cells, 17000 nM on human platelet PDE3 and 0.9 nM in assay [1].

For `C/C(=N\O)c1ccc2nnc(Sc3ccc4ncc(CN5CCOCC5)cc4c3)n2n1` [Example 31, (E)-1-(3-((3-(Morpholin-4-yl-methyl)quinolin-6-yl)sulfanyl)-[1,2,4]triazolo[4,3-b]pyridazin-6-yl)-ethanone oxime], the IC50 in the assay with GTL16 cells was 23 nM; against human platelet PDE3, more than 30000 nM; in assay [1] it was 3 nM.

Take `CCN(CC)Cc1cnc2ccc(Sc3nnc4ccc(/C(C)=N/O)nn34)cc2c1` [Example 32, (E)-1-(3-((3-((diethylamino)methyl)quinolin-6-yl)sulfanyl)-[1,2,4]triazolo[4,3-b]pyridazin-6-yl)ethanone oxime]: the figures for the IC50 (with GTL16 cells; against human platelet PDE3; in assay [1]) were 256 nM, more than 30000 nM and 4 nM, respectively.
